{
  "source": "patent US20260294770A1",
  "about": "“FORMULATIONS OF NARINGENIN” (DEBUT BIOTECHNOLOGY, INC., priority 2023, published 2026)",
  "key": {"KRT1": {"system": "KRT1", "test": "Upregulation of gene expression and/or activity, 1% naringenin: KRT1", "text": "(§1) In certain embodiments, administration of a composition comprising naringenin leads to up-regulation of LCE5A, KRT77, ALOXE3, KRT1, HPGD, MUCL1, CASP14, WFDC12, KRT10, DNASE1L2, IL37, SERPINB12, HAL, UPK1A, CALML5, LCE2B, and/or MIR205. In certain embodiments, administration of a composition comprising naringenin leads to down-regulation of CCL11, CSF2, IL23A, IL11, BMP6, IL13RA2, C2CD4A, NR4A2, C2CD4B, FGF2, FARP4, GDF15, THBS1, HSPA1A, PTGS2, and/or DKK1. Tables 10 and 11 provide data for upregulation and downregulation respectively of certain genes after administration of compositions comprising 1% naringenin.\nKeratin 1 (KRT1) plays a role in maintaining the skin strength and resiliency. Keratin 1 is produced in keratinocytes in the outer layer of the skin (the epidermis), including the skin on the palms of the hands and soles of the feet. The keratin 1 protein partners with another keratin protein, either keratin 9 or keratin 10, to form molecules called keratin intermediate filaments. These filaments assemble into strong networks that provide strength and resiliency to the skin and protect it from being damaged by friction and other everyday physical stresses. In certain embodiments, the administration of composition comprising naringenin results in upregulation of KRT1, which has a role in enhancing the strength and resiliency of the skin. […]"}, "WFDC12": {"system": "WFDC12", "test": "Upregulation of gene expression and/or activity, 1% naringenin: WFDC12", "text": "as §1"}, "DNASE1L2": {"system": "DNASE1L2", "test": "Upregulation of gene expression and/or activity, 1% naringenin: DNASE1L2", "text": "as §1\nDeoxyribonuclease-1-like 2 (DNASE1L2) plays a role in recycling of dying cells. Hair, nails, and the cornified layer of the epidermis, i.e. the stratum corneum, consist of cornified keratinocytes, also known as corneocytes. The process of cornification involves the cross-linking of structural proteins and leads to the high mechanical stability of corneocytes which, along with the formation of stable desmosomal links between cells, is essential for the resistance of epidermal structures to stress from the environment DNASE1L2 is a keratinocyte-specific DNase. DNASE1L2 breakdown of the nucleus in skin appendages and distinct epithelia whereas cornification of the interfollicular epidermis. […]"}, "SERPINB12": {"system": "SERPINB12", "test": "Upregulation of gene expression and/or activity, 1% naringenin: SERPINB12", "text": "as §1\nSerine protease inhibitor (SERPINB12) plays a role in protection of epithelial cells. The intracellular serine protease inhibitors (serpins) are an important family of proteins that protect cells form proteinase-mediated injury. SERPINB12 is broadly expressed and is likely to protect cells, including epithelial cells, from both endogenous and exogenous peptidases. In certain embodiments, compositions comprising naringenin leads to upregulation of SERPINB12, which leads to increase in protection of epithelial cells. In certain embodiments, the administration of composition comprising naringenin results in at least about 5 to about 20-fold upregulation of expression and/or activity of SERPINB12. […]"}, "CALML5": {"system": "CALML5", "test": "Upregulation of gene expression and/or activity, 1% naringenin: CALML5", "text": "as §1\nCalmodulin like 5 (CALML5) plays a role in cell growth. The enzyme encoded by CALML5 is a novel calcium binding protein expressed in the epidermis and related to the calmodulin family of calcium binding proteins. It plays a key role in cell growth and proliferation, including playing a key role in terminal differentiation of keratinocytes. In certain embodiments, administration of compositions comprising naringenin leads to upregulation of CALML5, which leads to increase cell proliferation, including the cells in the skin and the underlying tissues. […] In certain embodiments, the administration of composition comprising naringenin results in at least about 2 to about 10-fold upregulation of expression and/or activity of CALML5. […]"}, "C2CD4A": {"system": "C2CD4A", "test": "Downregulation of gene expression and/or activity, 1% naringenin: C2CD4A", "settings": "negative = downregulation", "text": "as §1"}, "FGF2": {"system": "FGF2", "test": "Downregulation of gene expression and/or activity, 1% naringenin: FGF2", "settings": "negative = downregulation", "text": "as §1"}, "[1]": {"test": "Glycation inhibition assay", "assay_type": "biochemical", "settings": "for IC50 glycation inhibition: calculated", "experimental": "The assay was conducted to evaluate the glycation inhibition activity of compositions comprising naringenin.\nNonenzymatic glycation can occur when glucose reacts with proteins, forming a Schiff base intermediate that subsequently undergoes Amadori rearrangement to form glycosylated proteins, when they react with skin proteins to form Advanced Glycation End products (AGE). AGE formation can result in loss of skin elasticity and impaired cellular function. The glycation inhibition ability of a compound is measured by change in fluorescence m relative to solvent control."}, "mouse models": {"system": "mouse models", "settings": "intraperitoneal; cited from earlier work"}},
  "data": [
    {"smiles": "O=C1C[C@@H](c2ccc(O)cc2)Oc2cc(O)cc(O)c21", "note": "[naringenin, (2S)-5,7-Dihydroxy-2-(4-hydroxyphenyl)-2,3-dihydro-4H-1-benzopyran-4-one]", "values": [
      {"measurement": "Fold-increase in expression and/or activity of KRT1", "setting": "KRT1", "result": "~7", "unit": "fold"},
      {"measurement": "Fold-increase in expression and/or activity of WFDC12", "setting": "WFDC12", "result": 11, "unit": "fold"},
      {"measurement": "Fold-increase in expression and/or activity of DNASE1L2", "setting": "DNASE1L2", "result": "~9", "unit": "fold"},
      {"measurement": "Fold-increase in expression and/or activity of SERPINB12", "setting": "SERPINB12", "result": "~13", "unit": "fold"},
      {"measurement": "Fold-increase in expression and/or activity of CALML5", "setting": "CALML5", "result": "~7", "unit": "fold"},
      {"measurement": "Fold-increase (downregulation table) C2CD4A", "setting": "C2CD4A", "result": "−10", "unit": "fold"},
      {"measurement": "Fold-increase (downregulation table) FGF2", "setting": "FGF2", "result": "−7", "unit": "fold"},
      {"measurement": "Lowest concentration inhibiting glycation", "setting": "[1]", "result": "≤ 0.002", "unit": "% w/w"},
      {"measurement": "% Enzyme Inhibition (glycation inhibition)", "setting": "[1]; 0.008 % w/w naringenin", "result": 27.87, "unit": "%"},
      {"measurement": "% Enzyme Inhibition (glycation inhibition)", "setting": "[1]; 0.016 % w/w naringenin", "result": 45.49, "unit": "%"},
      {"measurement": "% Enzyme Inhibition (glycation inhibition)", "setting": "[1]; 0.031 % w/w naringenin", "result": 60.22, "unit": "%"},
      {"measurement": "% Enzyme Inhibition (glycation inhibition)", "setting": "[1]; 0.0625 % w/w naringenin", "result": 69.05, "unit": "%"},
      {"measurement": "IC50 glycation inhibition", "setting": "[1]", "result": 0.019, "unit": "% w/w"},
      {"measurement": "IC50 glycation inhibition", "setting": "[1]; Example 7", "result": 0.019, "unit": "%"},
      {"measurement": "Cytokine production", "setting": "mouse models", "result": "lowers cytokine production"},
      {"measurement": "Edema", "setting": "mouse models", "result": "effectively inhibits edema"},
      {"measurement": "Symptoms associated with atopic dermatitis", "setting": "mouse models", "result": "lowers symptoms associated with atopic dermatitis"},
      {"measurement": "UVB-induced skin damage", "setting": "mouse models", "result": "inhibits UVB-induced skin damage"}
    ]}
  ]
}
